Experimental data published in patent US20100004275A1, “AGENT FOR SUPPRESSING DEVELOPMENT OF TOLERANCE TO NARCOTIC ANALGESICS” (KYOTO UNIVERSITY, priority 2004, published 2010).

Tests used:
ddY mice = assay: Tail-flick test, tolerance to morphine analgesic induced by repeated morphine, with V1 receptor antagonist i.c.v. (Example 2); assay type: in vivo; details: male ddY mice; antagonist 0.5, 5 or 10 ng i.c.v. + morphine hydrochloride 10 mg/kg s.c. twice a day for 5 days; 1st, 3rd and 5th days; FIGS. 2 to 4
Method: (§1) % MPE=100×[(Measured value after treatment−Measured value before treatment)[…](Cut-off value−Measured value before treatment)]
Male ddY mice (5- or 6-week old) were intracerebroventricularly (i.c.v.) given with 5 μl of physiological saline or a V1 receptor antagonist (0.5, 5 or 10 ng), and immediately after the administration, the mice were subcutaneously given with 10 mg/kg of morphine hydrochloride, which was repeated twice a day for 5 days to induce tolerance to morphine analgesic. The analgesic effect was evaluated by the tail-flick test on 1st, 3rd and 5th days after the administration on the basis of intensity of analgesic effect using % MPE and AUC (area under the time-reaction curve, Area Under the Curve). As the V1 receptor antagonist, the following three types of antagonists were used.

[1] = test system: V1a receptor knockout mice, V1b receptor knockout mice, and control mice; assay: Tail-flick test, development of tolerance to morphine in V1a/V1b receptor knockout and control mice (Example 1); assay type: in vivo; details: 10 mg/kg s.c. once a day for 15 days, FIG. 1
Method: V1a receptor knockout mice (Neuroscience Letters, 356, pp. 195-198, 2004), V1b receptor knockout mice (J. Clin. Invest., 113, pp. 302-309, 2004), and control mice (body weight: about 30 g) were subcutaneously (s.c.) given with 10 mg/kg of morphine hydrochloride once a day, which was repeated for 15 days. The analgesic effect was evaluated by the tail-flick test on 1st, 5th, 9th, 12th and 15th days after the administration on the basis of the maximal possible effect (% MPE), which represents analgesic intensity and is calculated in accordance with the following equation.
as §1

Compound	effect on development of tolerance to morphine (% MPE and AUC) (ddY mice)	development of tolerance to analgesic effect (% MPE) ([1]; V1a receptor knockout mice)	development of tolerance to analgesic effect (% MPE) ([1]; V1b receptor knockout mice)	development of tolerance to analgesic effect (% MPE) ([1]; control mice)
deamino-Pen, O-Me-Tyr, Arg]-vasopressin [dPenTyr(Me)AVP]	suppressed the development of tolerance	–	–	–
[phenylacetyl, O-Me-D-Try, Arg, Lys]-vasopressin amide [PhAcALVP]	had no effect on the tolerance development	–	–	–
[β-mercapto-β,β-cyclopentamethylenepropionyl, O-Me-Tyr, Arg]-vasopressin [d(CH2)5Tyr(Me)AVP]	had no effect on the tolerance development	–	–	–
CN1CC[C@]23c4c5ccc(O)c4O[C@H]2[C@@H](O)C=C[C@H]3[C@H]1C5.Cl [morphine, morphine hydrochloride]	–	tolerance to morphine was developed	remarkable resistance against tolerance to morphine was observed	tolerance to morphine was developed
